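Tested at 5 concentrations; 48 h exposure; 96-well plates; endpoints linearly interpolated, else capped at highest concentration. GI50 is the concentration that inhibits growth by half.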 The source made the active and inactive calls. Rule as the data show it: active = GI50 up to about 1.1 µM and inactive = higher.
Tests used:
Assay in all cases: DTP human tumour cell line panel, 48 h
ACHN = tested on: ACHN
CAKI-1 = tested on: CAKI-1
COLO 205 = tested on: COLO 205
HCT-15 = tested on: HCT-15
HL-60 = tested on: HL-60
Hs-578T = tested on: Hs-578T
IGROV-1 = tested on: IGROV-1
MDA-MB-435 = tested on: MDA-MB-435
Malme-3M = tested on: Malme-3M
NCI-H226 = tested on: NCI-H226
NCI-H460 = tested on: NCI-H460
OVCAR-8 = tested on: OVCAR-8
PC-3 = tested on: PC-3
RXF 393 = tested on: RXF 393
SF-268 = tested on: SF-268
SF-539 = tested on: SF-539
SW-620 = tested on: SW-620
TK-10 = tested on: TK-10
A498 = tested on: A498
T47D = tested on: T47D

| Structure (SMILES) | GI50 (ACHN) | GI50 (CAKI-1) | GI50 (COLO 205) | GI50 (HCT-15) | GI50 (HL-60) | GI50 (Hs-578T) | GI50 (IGROV-1) | GI50 (MDA-MB-435) | GI50 (Malme-3M) | GI50 (NCI-H226) | GI50 (NCI-H460) | GI50 (OVCAR-8) | GI50 (PC-3) | GI50 (RXF 393) | GI50 (SF-268) | GI50 (SF-539) | GI50 (SW-620) | GI50 (TK-10) | GI50 (A498) | GI50 (T47D) |
| --- | --- | --- | --- | --- | --- | --- | --- | --- | --- | --- | --- | --- | --- | --- | --- | --- | --- | --- | --- | --- |
| Cc1cc(C)c(S(=O)(=O)N2CCCN(S(=O)(=O)c3c(C)cc(C)cc3C)OCCCON(S(=O)(=O)c3c(C)cc(C)cc3C)CCCN(S(=O)(=O)c3c(C)cc(C)cc3C)OCCCO2)c(C)c1 | > 100 µM (inactive) | > 100 µM (inactive) | > 100 µM (inactive) | > 100 µM | 46.6 µM (inactive) | 51.8 µM (inactive) | > 100 µM (inactive) | > 100 µM (inactive) | > 100 µM (inactive) | > 100 µM (inactive) | > 100 µM (inactive) | > 100 µM (inactive) | > 100 µM (inactive) | 61.1 µM (inactive) | > 100 µM (inactive) | > 100 µM (inactive) | > 100 µM (inactive) | > 100 µM (inactive) | – | – |
| COc1cc2c3c(c4ccc(OC)c(OC)c4c2cc1OC)CN1CCC[C@@H]1C3 [TYLOCREBRINE] | 0.0444 µM (active) | < 0.0216 µM (active) | 0.0228 µM (active) | 0.0312 µM | 0.0343 µM (active) | 0.0182 µM (active) | 0.0407 µM (active) | 0.0365 µM (active) | 0.0248 µM (active) | < 0.0176 µM (active) | 0.0392 µM (active) | < 0.0146 µM (active) | 0.0582 µM (active) | < 0.0155 µM (active) | < 0.0171 µM (active) | 0.0191 µM (active) | 0.0586 µM (active) | 0.0574 µM (active) | < 0.01 µM (active) | – |
| Cc1ccc(S(=O)(=O)Nn2c(S)c(C#N)c(-c3ccc(Cl)cc3)c(C#N)c2=O)cc1 | 31.6 µM (inactive) | 32.7 µM (inactive) | 35.6 µM (inactive) | 25.9 µM | 23 µM (inactive) | – | 20.6 µM (inactive) | 27.1 µM (inactive) | 30.8 µM (inactive) | 16.4 µM (inactive) | 17 µM (inactive) | 22 µM (inactive) | 24.4 µM (inactive) | 32.3 µM (inactive) | – | 19.6 µM (inactive) | 22.4 µM (inactive) | 25.6 µM (inactive) | 26.5 µM (inactive) | – |
| COc1cc2c(cc1OC)C(OC)N(C)c1c-2ccc2cc3c(cc12)OCO3 (centres undefined) | 4.69 µM (inactive) | 1.98 µM (inactive) | 0.733 µM (active) | 40.7 µM | 2.22 µM (inactive) | – | 0.805 µM (active) | 69 µM (inactive) | 3.51 µM (inactive) | 1.11 µM (active) | 0.486 µM (active) | 1.72 µM (inactive) | 1.33 µM (inactive) | 1.91 µM (inactive) | 0.094 µM (active) | 1.75 µM (inactive) | 0.571 µM (active) | 6.75 µM (inactive) | 0.458 µM (active) | – |
| COc1ccc2c(c1)N=C1CSC(c3ccccc3Cl)N1C2 (centres undefined) | 11.8 µM (inactive) | 3.31 µM (inactive) | 14.9 µM (inactive) | 9.68 µM | 0.411 µM (active) | 45.2 µM (inactive) | – | 11.5 µM (inactive) | 23.4 µM (inactive) | 24 µM (inactive) | 3.12 µM (inactive) | 16.1 µM (inactive) | 11.5 µM (inactive) | 11.3 µM (inactive) | 16.4 µM (inactive) | 5.48 µM (inactive) | 14.8 µM (inactive) | 17.1 µM (inactive) | – | 19.5 µM (inactive) |
| Cn1c(=O)c(Br)c(C=O)n(CCO[N+](=O)[O-])c1=O | 3.71 µM (inactive) | – | 5.92 µM (inactive) | 4.83 µM | 1.77 µM (inactive) | 31 µM (inactive) | – | 5.42 µM (inactive) | – | 51.3 µM (inactive) | 15.9 µM (inactive) | 2.52 µM (inactive) | 9.14 µM (inactive) | – | 4.28 µM (inactive) | 7.76 µM (inactive) | 2.26 µM (inactive) | 3.86 µM (inactive) | 18.2 µM (inactive) | 1.87 µM (inactive) |
| Cc1cc(/C=C/c2cc[n+](C)c3ccccc23)c(O)c2ncccc12 | 4.22 µM (inactive) | 10.1 µM (inactive) | 5.68 µM (inactive) | 4.65 µM | 0.625 µM (active) | – | 1.93 µM (inactive) | – | 2.8 µM (inactive) | 1.87 µM (inactive) | 0.597 µM (active) | 0.411 µM (active) | – | 2.38 µM (inactive) | 0.973 µM (active) | 0.426 µM (active) | 0.619 µM (active) | 4.28 µM (inactive) | 4.19 µM (inactive) | – |
| Cc1noc(C)c1/N=N/c1ccc2nonc2c1N | > 100 µM (inactive) | > 100 µM (inactive) | > 100 µM (inactive) | > 100 µM | > 100 µM (inactive) | – | > 100 µM (inactive) | > 100 µM (inactive) | > 100 µM (inactive) | – | > 100 µM (inactive) | > 100 µM (inactive) | > 100 µM (inactive) | > 100 µM (inactive) | > 100 µM (inactive) | 23.4 µM (inactive) | > 100 µM (inactive) | 58.7 µM (inactive) | – | > 100 µM (inactive) |

From ChEMBL document CHEMBL1201862, “PubChem BioAssay data set” (2004)
